Laboratory results: article PMC4128677, “Somatostatin Analogues for Receptor Targeted Photodynamic Therapy” (PLoS ONE, 2014)
“And” between values parts separate entries of the source, which are not always exact repeats. Identical values can stand only once.

Legend:
[1] = 1-Octanol/PBS partition coefficient; assay type: physicochemical; details: 1-octanol / PBS pH = 7.4; Poct/buffer = Coct/Cbuffer; stock 0.6 mM in DMSO; duplicates
Experimental: Partition coefficient. Stock solutions of Ce6 and conjugates (0.6 mM) were prepared in DMSO. Lipophilicity was characterized by their partition coefficient Poct/buffer = Coct/Cbuffer between two solvents 1-octanol (oct) and PBS, pH = 7.4 (buffer). Measurements were carried out in duplicates as described by Cunderlikova et al.

K562 sst2+ cells [2] = assay: In vitro PDT phototoxicity, K562 sst2+ cells; assay type: cell-based, human
Experimental: In vitro PDT experiments were performed to determine the phototoxicity of free Ce6 and conjugates. K562 sst2+ and WT cells were seeded in L-polylysine-coated (10 µg/ml) 96-well (8×10^3/well) and 24-well (4×10^4/well) and incubated overnight in 5% CO2 at 37°C. […] After incubation, cells were washed. Fresh serum-free medium was added, and cells were illuminated with 652 nm to a dose from 0.5 to 5 J cm^−2 at 5 mW.cm^−2. Thereafter, serum-containing medium was added and cells were allowed to grow for an additional 3 days in 5% FCS medium. Toxicity was determined by: measurement of DNA contents using the bisbenzimide fluorescent dye (Hoechst 33258, Boehring Diagnostics, CA, USA) and measurement of mitochondrial dehydrogenase cleavage of WST-1 reagent (Roche Diagnostics, Germany), [39]. Experiments were done in triplicates.

[3] = tested on: sst2+ AR42J acinar pancreas tumors; assay: Intra-vital fluorescence pharmacokinetics in AR42J tumors in rat skin-fold chambers; assay type: in vivo; details: i.v. tail vein, conjugate 1 0.67 mg/kg, Ce6 0.2 mg/kg, rat skin-fold chamber
Experimental: Intra-vital confocal fluorescence imaging was performed in single sided rat skin-fold chambers transplanted with sst2 ^+ AR42J acinar pancreas tumors as described previously. The study was approved by the animal experimental committee of the Erasmus MC. Chambers were prepared in 12 animals divided into three groups. […] The first group of animals received Ce6 at a dose of 0.2 mg/kg, the second group received conjugate 1 at a dose of 0.67 mg/kg such that the same number of Ce6 molecules were administered to each animal; (equivalent Ce6 concentration of 2.011×10^−4 M).
Animals were anesthetized using isoflurane/O2 and autofluorescence images were recorded. Drug was administered intravenously into the tail vein. Fluorescence images were acquired 5 and 20 minutes after conjugate administration after which the animal was allowed to recover. Subsequent fluorescence images were acquired under anesthesia at 1, 4, 24, 72 and 96 hrs. […] Confocal fluorescence imaging (LSM 510 Meta (Zeiss, Germany)) was performed using a 40× objective. The distribution of Ce6 fluorescence was mapped under 514 nm laser excitation in the lambda mode (539–753 nm). […] Spectra acquired from individual pixels were analyzed as a linear combination of basis spectra and fitted using a singular value decomposition algorithm. The fluorescence of Ce6 and conjugate 1 was determined in ROIs. […]

[4] = Steady-state absorption and fluorescence in PBS; assay type: physicochemical; details: PBS pH = 7.4
Experimental: Steady-State Fluorescence and Absorption Measurements. The fluorescence quantum yields (ΦF) of Ce6 and conjugates in PBS pH 7.4 were determined by a relative method. Ce6 in the buffer at pH 7.4 with the quantum yield of 0.18 [24,32,33] was used as a reference.
The absorption profile of Ce6 and conjugate in PBS of concentration (0.06–1µM) was recorded in Shimadzu spectrophotometer (UV-2101 PC, Duisburg, Germany).
The fluorescence emission of photosensitizers was recorded in a Perkin-Elmer spectrofluorimeter (LS 50B, Massachussetts, USA). Light at 408 nm was used for excitation. The concentration range of compounds matched to the O.D. up to 0.1.

K562 sst2+ cells [5] = assay: Cellular uptake in K562 sst2+ and WT cells; assay type: cell-based, human; details: 1 µM
Experimental: Stock solutions of Ce6 and Ce6-conjugates (1 mM) were dissolved in 80% DMSO and were stored in the dark at −20°C. Before experiments, the solutions were diluted to a concentration of 0.1 mM in 20% DMSO. K562 sst2+ or WT (3×10^5) in 1 ml RPMI 1640 serum-free or supplemented with 5% FCS were incubated with Ce6 or with conjugate (1 µM) for 15 min to 24 h in the dark at 37°C. After incubation, the cells were centrifuged, cell pellet dissolved in 2% SDS and fluorescence emission spectra (λexc = 405 nm) recorded. Photosensitizer concentrations were calculated in triplicate according to a calibration curve generated by mixing a known concentration of photosensitizer with a lysated control samples.

[6] = Photobleaching under 652 nm irradiation in PBS; assay type: physicochemical
Experimental: Photobleaching measurements. The loss of photosensitizer absorbance and fluorescence during irradiation was used to monitor photobleaching. Solutions of Ce6 and Ce6-conjugates were prepared in PBS pH = 7.4. The concentration of photosensitizers were adjusted so that all absorb the same number of photons at irradiated region (O.D. = 0.014 at the λirr. = 652 nm (Biolitec pharma, UK). Data was acquired in quartz cuvettes in aerobic conditions using stirring under uniform, measured irradiation at 5 mWcm^-2. At intervals, the cuvette was removed from magnetic stirrer and absorption and fluorescence emission spectrum (λexc = 405 nm) acquired. The initial absorption bleaching rate constants (kblA) for Ce6 and conjugates were evaluated as reported.

[7] = PBS pH = 7.4; used as reference; cited from earlier work
[8] = pH titration of fluorescence/absorbance (pKa); assay type: physicochemical; details: Fmax/A(λexc) versus pH, sigmoidal fit; PBS titrated with HNO3 and NaOH over pH 4.0-8.5; 0.8 µM; λexc = 408 nm
Experimental: pH measurements. The pH titration of PBS was performed with HNO3 and NaOH over pH 4.0-8.5. The final concentration of Ce6 and Ce6-conjugates in solution was 0.8 µM. The pH was measured by Sentron pH meter (Sentron Europe, NL) and the absorption and fluorescence emission (λexc = 408 nm) profiles of solutions were recorded. The inflection point of titration curves (pKa) were evaluated as reported. Briefly, the results of fluorescence titrations are presented in terms of a plot of fluorescence intensity as a function of pH with the constant concentration of the compound used throughout measurements. However, variations of fluorescence intensity are due to at least two contributions: the changes of molar extinction coefficient (differed absorbed intensity) and the changes of quantum efficiency with pH. To eliminate the influence of the molar extinction coefficient variations, the ratio of fluorescence intensity at the peak position to the absorbance at the excitation wavelength was plotted, followed by sigmoidal function fitting procedure (Figures S2-S4).

[9] = PBS pH = 7.4; used as reference; cited from earlier work; remark: listed apart in the source
From the text: The fluorescence quantum yield of Ce6 in neutral pH was similar to conjugates 1 (ΦF = 0.18 for Ce6 and ΦF = 0.20 for 1).

C=Cc1c(C)c2cc3nc(c(CC(=O)O)c4[nH]c(cc5nc(cc1[nH]2)C(C)=C5CC)c(C)c4C(=O)O)[C@@H](CCC(=O)O)[C@@H]3C [Ce6, Chlorin e6]
LogP, logarithm of partition coefficient [1]: 0.005±0.05 | cell survival after PDT compared to control cells (K562 sst2+ cells [2]; K562 sst2+, 1 µM, 4 h incubation, serum-free, 652 nm, 5 J.cm^−2, read after 3 days): almost complete inhibition of cell viability | light dose from which phototoxicity was seen (K562 sst2+ cells [2]; K562 sst2+, 1 µM, 4 h incubation, 652 nm): 0.5 J.cm^−2 | effect on cell growth of photosensitizer alone in the absence of light (K562 sst2+ cells [2]; dark toxicity, K562 cells): no effect on cell growth | time of fluorescence peak in tumor tissue [3]: gradually increased over the first 3 days | full width at half maximum of the Q(0,0) absorption band [4]: 21 nm | full width at half maximum of the Soret absorption band [4]: 27 nm | maximum of fluorescence band [4]: 661 nm | maximum of the Q(0,0) absorption band [4]: 655 nm | maximum of the Soret absorption band [4]: 402 nm | uptake in sst2+ cells compared to WT cells (factor) (K562 sst2+ cells [5]; serum-free and 5% FCS medium, fluorescence of lysate, λexc = 405 nm): same result as for conjugate 2 | concentration taken up by sst2+ cells (K562 sst2+ cells [5]; 4 h incubation, K562 sst2+): 90 nM | kblA, rate constant of initial absorption bleaching ([6]; PBS pH = 7.4, 652 nm irradiation at 5 mWcm^-2, O.D. = 0.014 at 652 nm, aerobic, stirring): 25.69 x 10^−2 J^−1 cm^2 | photostability ([6]; PBS, 652 nm irradiation, fluorescence bleaching): low photostability | ΦΔ, singlet oxygen quantum yield (reference value) [7]: 0.64 and 0.64±0.08 | pKa, inflection point of pH titration curve [8]: 6.71 and 6.71±0.0947 | ΦF, fluorescence quantum yield (reference value) [9]: 0.18
